# From US10364245B2 (CHIESI FARMACEUTICI S.p.A., priority 2017, dated 2019)
# Counter-ions that a name gives are not always drawn.
# Biological target: T1, p38 alpha (Homo sapiens, UniProt Q16539)
# T1 construct: purchased Invitrogen PV3304
# Test: P38 alpha enzyme inhibition assay (Alphascreen kinase activity assay)
# Format: biochemical
# Details: 100 pM p38 alpha, 2 hours preincubation at 25° C., 250 μM ATP, ATF-2 fusion protein; read-out: p38α inhibition
# Description: P38 Alpha Enzyme Inhibition Assay
# The inhibitory activity of compounds was determined using an Alphascreen® (Perkin Elmer) based kinase activity assay. Kinase reactions consisted of 25 mM HEPES pH 7.5, 10 mM MgCl2, 100 μM Na3VO4, 2 mM DTT, 0.05 mg/ml Tween 20, 100 pM p38 alpha (Invitrogen, PV3304), 1% DMSO and 0.3 μg/ml ATF-2 fusion protein (New England Biolabs, 9224). Compounds were incubated under these conditions for 2 hours, at 25° C., prior to the initiation of the kinase activity by the addition of the 250 μM ATP. Reaction volumes were 20 μL. After 1 hr at 25° C. reactions were stopped by the adding 10 μL of 25 mM HEPES pH 7.5 containing 62.5 mM EDTA, 0.05% Triton X-100, 10% BSA and 0.83 ng/uL anti-phospho-ATF2 antibody (Abcam, ab28812). Detection was performed by measuring luminescence following the addition of Alphascreen Donor beads (Perkin Elmer 6765300) and Protein A Alphascreen Acceptor beads (Perkin Elmer 6760137), both at a final concentration of 20 ug/ml. IC50 values were determined from concentration-response curves.
# T1 sequence (Q16539 whole entry): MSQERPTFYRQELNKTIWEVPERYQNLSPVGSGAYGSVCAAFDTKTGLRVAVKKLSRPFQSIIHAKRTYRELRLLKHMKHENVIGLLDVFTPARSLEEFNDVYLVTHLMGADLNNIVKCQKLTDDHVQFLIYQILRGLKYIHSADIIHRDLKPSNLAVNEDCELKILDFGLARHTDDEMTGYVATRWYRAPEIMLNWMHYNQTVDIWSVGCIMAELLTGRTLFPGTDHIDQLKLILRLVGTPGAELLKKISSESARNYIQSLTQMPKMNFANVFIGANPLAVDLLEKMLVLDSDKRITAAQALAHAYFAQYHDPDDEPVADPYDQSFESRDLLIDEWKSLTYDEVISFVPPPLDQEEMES
row,IC50 [nM],Compound
1,1 to 10,"CC(C)c1nnc2ccc(O[C@@H]3CC[C@H](NC(=O)Nc4cc(C(C)(C)C)nc(C(=O)NCCN(C)C)n4)c4ccccc43)cn12 [Example 17, 4-(tert-Butyl)-N-(2-(dimethylamino)ethyl)-6-(3-((1S,4R)-4-((3-isopropyl-[1,2,4]triazolo[4,3-a]pyridin-6-yl)oxy)-1,2,3,4-tetrahydronaphthalen-1-yl)ureido)pyrimidine-2-carboxamide]"
2,1 to 10,"CN(C)CCNC(=O)c1nc(NC(=O)N[C@H]2CC[C@@H](Oc3ccc4nnc(C(C)(C)N5CCN(C)CC5)n4c3)c3ccccc32)cc(C(C)(C)C)n1 [Example 22, 4-(tert-Butyl)-N-(2-(dimethylamino)ethyl)-6-(3-((1S,4R)-4-((3-(2-(4-methylpiperazin-1-yl)propan-2-yl)-[1,2,4]triazolo[4,3-a]pyridin-6-yl)oxy)-1,2,3,4-tetrahydronaphthalen-1-yl)ureido)pyrimidine-2-carboxamide]"
3,1 to 10,"CCc1nc(NC(=O)N[C@H]2CC[C@@H](Oc3ccc4nnc([C@]5(C)CCCN5C)n4c3)c3ccccc32)cc(C(C)(C)C)n1 [Example 41, 1-(6-(tert-Butyl)-2-ethylpyrimidin-4-yl)-3-((1S,4R)-4-((3-((S)-1,2-dimethylpyrrolidin-2-yl)-[1,2,4]triazolo[4,3-a]pyridin-6-yl)oxy)-1,2,3,4-tetrahydronaphthalen-1-yl)urea]"
4,1 to 10,"CC(C)c1nc(NC(=O)N[C@H]2CC[C@@H](Oc3ccc4nnc([C@]5(C)CCCN5C)n4c3)c3ccccc32)cc(C(C)(C)C)n1 [Example 42, 1-(6-(tert-Butyl)-2-isopropylpyrimidin-4-yl)-3-((1S,4R)-4-((3-((S)-1,2-dimethylpyrrolidin-2-yl)-[1,2,4]triazolo[4,3-a]pyridin-6-yl)oxy)-1,2,3,4-tetrahydronaphthalen-1-yl)urea]"
5,1 to 10,CSc1nc(NC(=O)N[C@H]2CC[C@@H](Oc3ccc4nnc([C@@H]5CCCN5C)n4c3)c3ccccc32)cc(C(C)(C)C)n1 [Example 48]
6,1 to 10,"CC(C)(C)c1cc(NC(=O)N[C@H]2CC[C@@H](Oc3ccc4nnc(C(C)(C)C)n4c3)c3ccccc32)nc(COCCN2CCOCC2)n1 [Example 63, 1-(6-(tert-Butyl)-2-((2-morpholinoethoxy)methyl)pyrimidin-4-yl)-3-((1S,4R)-4-((3-(tert-butyl)-[1,2,4]triazolo[4,3-a]pyridin-6-yl)oxy)-1,2,3,4-tetrahydronaphthalen-1-yl)urea]"
7,1 to 10,"CN(C)CCNC(=O)c1nc(NC(=O)N[C@H]2CC[C@@H](Oc3ccc4nnc(C(=O)N5CCOCC5)n4c3)c3ccccc32)cc(C(C)(C)C)n1 [Example 71, 4-(tert-butyl)-N-(2-(dimethylamino)ethyl)-6-(3-((1S,4R)-4-((3-(morpholine-4-carbonyl)-[1,2,4]triazolo[4,3-a]pyridin-6-yl)oxy)-1,2,3,4-tetrahydronaphthalen-1-yl)ureido)pyrimidine-2-carboxamide]"
8,1 to 10,"CC(C)(C)c1cc(NC(=O)N[C@H]2CC[C@@H](Oc3ccc4nnc(C(C)(C)C)n4c3)c3ccccc32)nc(C(=O)N2CC(F)(F)C2)n1 [Example 79, 1-(6-(tert-butyl)-2-(3,3-difluoroazetidine-1-carbonyl)pyrimidin-4-yl)-3-((1S,4R)-4-((3-(tert-butyl)-[1,2,4]triazolo[4,3-a]pyridin-6-yl)oxy)-1,2,3,4-tetrahydronaphthalen-1-yl)urea]"
9,1 to 10,"CC(C)Cc1nnc2ccc(O[C@@H]3CC[C@H](NC(=O)Nc4cc(C(C)(C)C)nc(C(=O)NCCN5CCOCC5)n4)c4ccccc43)cn12 [Example 90, 4-(tert-butyl)-6-(3-((1S,4R)-4-((3-isobutyl-[1,2,4]triazolo[4,3-a]pyridin-6-yl)oxy)-1,2,3,4-tetrahydronaphthalen-1-yl)ureido)-N-(2-morpholinoethyl)-pyrimidine-2-carboxamide]"
10,1 to 10,"CC(C)(C)c1cc(NC(=O)N[C@H]2CC[C@@H](Oc3ccc4nnc(C5(C)COC5)n4c3)c3ccccc32)nc(C(=O)NCCN2CCOCC2)n1 [Example 98, 4-(tert-butyl)-6-(3-((1S,4R)-4-((3-(3-methyloxetan-3-yl)-[1,2,4]triazolo[4,3-a]pyridin-6-yl)oxy)-1,2,3,4-tetrahydronaphthalen-1-yl)ureido)-N-(2-morpholinoethyl)-pyrimidine-2-carboxamide]"
11,1 to 10,"CO[C@@H](C)c1nnc2ccc(O[C@@H]3CC[C@H](NC(=O)Nc4cc(C(C)(C)C)nc(C(=O)NCCN5CCOCC5)n4)c4ccccc43)cn12 [Example 101, 4-(tert-butyl)-6-(3-((1S,4R)-4-((3-((S)-1-methoxyethyl)-[1,2,4]triazolo[4,3-a]pyridin-6-yl)oxy)-1,2,3,4-tetrahydronaphthalen-1-yl)ureido)-N-(2-morpholinoethyl)-pyrimidine-2-carboxamide]"
12,1 to 10,"COCCN(C)CCNC(=O)c1nc(NC(=O)N[C@H]2CC[C@@H](Oc3ccc4nnc([C@H](C)OC)n4c3)c3ccccc32)cc(C(C)(C)C)n1 [Example 106, 4-(tert-butyl)-N-(2-((2-methoxyethyl)(methyl)amino)ethyl)-6-(3-((1S,4R)-4-((3-((S)-1-methoxyethyl)-[1,2,4]triazolo[4,3-a]pyridin-6-yl)oxy)-1,2,3,4-tetrahydronaphthalen-1-yl)ureido)pyrimidine-2-carboxamide]"
13,1 to 10,"CN(C)CCN(C)C(=O)c1nc(NC(=O)N[C@H]2CC[C@@H](Oc3ccc4nnc(C(C)(C)C)n4c3)c3ccccc32)cc(C(C)(C)C)n1 [Example 115, 4-(tert-butyl)-6-(3-((1S,4R)-4-((3-(tert-butyl)-[1,2,4]triazolo[4,3-a]pyridin-6-yl)oxy)-1,2,3,4-tetrahydronaphthalen-1-yl)ureido)-N-(2-(dimethylamino)ethyl)-N-methylpyrimidine-2-carboxamide]"
14,1 to 10,"CC(C)(C)c1cc(NC(=O)N[C@H]2CC[C@@H](Oc3ccc4nnc(C(C)(C)C)n4c3)c3ccccc32)nc(C(=O)N2CCN(CCO)CC2)n1 [Example 116, 1-(6-(tert-butyl)-2-(4-(2-hydroxyethyl)piperazine-1-carbonyl)pyrimidin-4-yl)-3-((1S,4R)-4-((3-(tert-butyl)-[1,2,4]triazolo[4,3-a]pyridin-6-yl)oxy)-1,2,3,4-tetrahydronaphthalen-1-yl)urea]"
15,1 to 10,"CN1CCCN(C(=O)c2nc(NC(=O)N[C@H]3CC[C@@H](Oc4ccc5nnc(C(C)(C)C)n5c4)c4ccccc43)cc(C(C)(C)C)n2)CC1 [Example 133, 1-(6-(tert-butyl)-2-(4-methyl-1,4-diazepane-1-carbonyl)pyrimidin-4-yl)-3-((1S,4R)-4-((3-(tert-butyl)-[1,2,4]triazolo[4,3-a]pyridin-6-yl)oxy)-1,2,3,4-tetrahydronaphthalen-1-yl)urea]"
16,1 to 10,"CN1CCN(Cc2nc(NC(=O)N[C@H]3CC[C@@H](Oc4ccc5nnc(C(C)(C)C)n5c4)c4ccccc43)cc(C(C)(C)C)n2)C(=O)C1 [Example 135, 1-(6-(tert-Butyl)-2-((4-methyl-2-oxopiperazin-1-yl)methyl)pyrimidin-4-yl)-3-((1S,4R)-4-((3-(tert-butyl)-[1,2,4]triazolo[4,3-a]pyridin-6-yl)oxy)-1,2,3,4-tetrahydronaphthalen-1-yl)urea formate salt]"
17,1 to 10,"COC(C)(C)c1nnc2ccc(O[C@@H]3CC[C@H](NC(=O)Nc4cc(C(C)(C)C)nc(C(=O)NCC(C)(C)N(C)C)n4)c4ccccc43)cn12 [Example 141, 4-(tert-butyl)-N-(2-(dimethylamino)-2-mcthylpropyl)-6-(3-((1S,4R)-4-((3-(2-methoxypropan-2-yl)-[1,2,4]triazolo[4,3-a]pyridin-6-yl)oxy)-1,2,3,4-tetrahydronaphthalen-1-yl)ureido)pyrimidine-2-carboxamide]"
18,1 to 10,"COC(C)(C)c1nnc2ccc(O[C@@H]3CC[C@H](NC(=O)Nc4cc(C(C)(C)C)nc(COCCN5CCOCC5)n4)c4ccccc43)cn12 [Example 144, 1-(6-(tert-butyl)-2-((2-morpholinoethoxy)-methyl)pyrimidin-4-yl)-3-((1S,4R)-4-((3-(2-methoxypropan-2-yl)-[1,2,4]triazolo[4,3-a]pyridin-6-yl)oxy)-1,2,3,4-tetrahydronaphthalen-1-yl)urea]"
19,1 to 10,"CCC(CC)(CNC(=O)c1nc(NC(=O)N[C@H]2CC[C@@H](Oc3ccc4nnc(C(C)(C)COC)n4c3)c3ccccc32)cc(C(C)(C)C)n1)N(C)C [Example 147, 4-(tert-butyl)-N-(2-(dimethylamino)-2-ethylbutyl)-6-(3-((1S,4R)-4-((3-(1-methoxy-2-methylpropan-2-yl)-[1,2,4]triazolo[4,3-a]pyridin-6-yl)oxy)-1,2,3,4-tetrahydronaphthalen-1-yl)ureido)pyrimidine-2-carboxamide]"
20,1 to 10,"CCN(C)C(C)(C)CNC(=O)c1nc(NC(=O)N[C@H]2CC[C@@H](Oc3ccc4nnc(C(C)(C)C)n4c3)c3ccccc32)cc(C(C)(C)C)n1 [Example 148, 4-(tert-butyl)-6-(3-((1S,4R)-4-((3-(tert-butyl)-[1,2,4]triazolo[4,3-a]pyridin-6-yl)oxy)-1,2,3,4-tetrahydronaphthalen-1-yl)ureido)-N-(2-(ethyl(methyl)amino)-2-methylpropyl)pyrimidine-2-carboxamide]"
